Assay results: patent US20250313535A1, “ALPHA 4 BETA 7 INTEGRIN MODULATORS AND USES THEREOF” (DICE MOLECULES SV, INC., priority 2022, published 2025)
pIC50: −log10 of the molar value. Read-outs that look alike come from different tables or passages of the source.

How the values were obtained:
α4β1 integrin = α4β1 integrin (Homo sapiens (Human), UniProt P05556+P13612); assay: Integrin Adhesion Assay: Protocol 5 (VCAM-coated plate, RPMI-8866 cells with stable LOF mutation of the ITGB7 gene); format: cell-based
Summary of the method: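 RPMI-8866 B cells with CRISPR/Cas9 ITGB7 knockout (clonal, verified by flow cytometry) adhered to VCAM-coated wells for 1 h at 37° C in HEPES/NaCl buffer with 1 mM MnCl2, 0.1 mM CaCl2, 1% BSA, 1% DMSO. Bound cells quantified by CellTiter-Glo luminescence after washing; % inhibition versus DMSO and control, 4-parameter fit.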

α4β7 integrin = α4β7 integrin (Homo sapiens (Human), UniProt P13612+P26010); assay: Integrin Adhesion Assay: Protocol 4 (MAdCAM-coated plate, RPMI-8866 cells with stable LOF mutation of the ITGB1 gene); format: cell-based
Summary of the method: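 RPMI-8866 cells with CRISPR/Cas9 knockout of ITGB1 (2×10^6/mL) were added to MAdCAM-coated wells with compound (1% DMSO) in HEPES/NaCl buffer with 1 mM MnCl2, 0.1 mM CaCl2 and 1% BSA, then incubated 1 h at 37 °C. After four washes, adherent cells were quantified by CellTiter-Glo luminescence. Percent inhibition versus DMSO and control compound was fitted to 4-parameter curves.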

[1] = Protocol 5, RPMI-8866 cells with LOF mutation of ITGB7, VCAM, read-out: Mean IC50 α4β1 KO
[2] = Protocol 4, RPMI-8866 cells with LOF mutation of ITGB1, MAdCAM, read-out: Mean IC50 α4β7 KO
[3] = RPMI-8866 cells with stable LOF mutation of the ITGB7 gene, read-out: Mean IC50 α4β1 KO^b
[4] = RPMI-8866 cells with stable LOF mutation of the ITGB1 gene, read-out: Mean IC50 α4β7 KO^a

Chain of α4β1 integrin (P13612 34-1032): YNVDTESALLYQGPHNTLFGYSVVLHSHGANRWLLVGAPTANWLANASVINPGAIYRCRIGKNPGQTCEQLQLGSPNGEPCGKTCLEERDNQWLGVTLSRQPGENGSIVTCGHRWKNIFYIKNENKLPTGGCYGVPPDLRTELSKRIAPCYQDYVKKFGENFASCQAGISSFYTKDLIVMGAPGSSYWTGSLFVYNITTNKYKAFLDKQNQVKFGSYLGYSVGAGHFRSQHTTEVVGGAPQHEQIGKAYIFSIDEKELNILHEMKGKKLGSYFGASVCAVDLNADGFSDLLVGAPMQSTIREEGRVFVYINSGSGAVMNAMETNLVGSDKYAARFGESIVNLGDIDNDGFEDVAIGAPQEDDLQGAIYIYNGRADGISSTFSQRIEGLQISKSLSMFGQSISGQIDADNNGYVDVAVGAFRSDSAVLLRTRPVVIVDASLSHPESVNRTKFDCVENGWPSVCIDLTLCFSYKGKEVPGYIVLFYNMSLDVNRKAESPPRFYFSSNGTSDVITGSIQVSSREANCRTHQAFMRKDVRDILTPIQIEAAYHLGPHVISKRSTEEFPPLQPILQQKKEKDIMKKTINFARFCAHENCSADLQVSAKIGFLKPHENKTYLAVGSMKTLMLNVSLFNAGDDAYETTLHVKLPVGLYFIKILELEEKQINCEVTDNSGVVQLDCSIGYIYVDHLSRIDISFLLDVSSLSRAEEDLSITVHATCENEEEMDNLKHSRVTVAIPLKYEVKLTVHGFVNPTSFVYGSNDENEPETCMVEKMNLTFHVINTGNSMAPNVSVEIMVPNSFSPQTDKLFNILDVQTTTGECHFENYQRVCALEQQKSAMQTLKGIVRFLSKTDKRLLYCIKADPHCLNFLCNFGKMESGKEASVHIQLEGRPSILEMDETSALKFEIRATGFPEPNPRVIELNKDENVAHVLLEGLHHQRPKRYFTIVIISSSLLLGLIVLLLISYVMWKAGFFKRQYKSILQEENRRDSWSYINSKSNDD
Chain of α4β1 integrin (P05556 21-798): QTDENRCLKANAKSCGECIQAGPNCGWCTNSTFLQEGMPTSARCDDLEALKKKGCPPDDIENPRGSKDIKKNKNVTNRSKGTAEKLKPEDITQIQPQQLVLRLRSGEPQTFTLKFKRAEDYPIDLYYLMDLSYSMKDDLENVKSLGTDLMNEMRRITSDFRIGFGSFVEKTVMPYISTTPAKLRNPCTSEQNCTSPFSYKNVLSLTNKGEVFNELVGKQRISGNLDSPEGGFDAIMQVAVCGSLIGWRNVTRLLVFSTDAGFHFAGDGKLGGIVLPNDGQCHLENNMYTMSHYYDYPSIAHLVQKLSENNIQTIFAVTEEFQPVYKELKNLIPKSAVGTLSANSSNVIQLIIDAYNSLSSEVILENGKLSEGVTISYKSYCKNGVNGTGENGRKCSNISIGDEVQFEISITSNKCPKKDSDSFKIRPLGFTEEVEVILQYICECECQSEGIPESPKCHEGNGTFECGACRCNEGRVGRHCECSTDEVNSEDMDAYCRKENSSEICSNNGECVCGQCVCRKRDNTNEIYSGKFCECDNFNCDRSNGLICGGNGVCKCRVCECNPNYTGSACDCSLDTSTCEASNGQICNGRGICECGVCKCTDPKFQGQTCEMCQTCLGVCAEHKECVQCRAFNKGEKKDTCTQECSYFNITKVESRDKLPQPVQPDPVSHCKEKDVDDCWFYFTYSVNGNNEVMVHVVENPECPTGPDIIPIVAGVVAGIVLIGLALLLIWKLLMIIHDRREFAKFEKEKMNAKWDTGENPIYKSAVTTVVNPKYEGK
Chain of α4β7 integrin (P13612 34-1032): as the sequence (P13612 34-1032) above
Chain of α4β7 integrin (P26010 20-798): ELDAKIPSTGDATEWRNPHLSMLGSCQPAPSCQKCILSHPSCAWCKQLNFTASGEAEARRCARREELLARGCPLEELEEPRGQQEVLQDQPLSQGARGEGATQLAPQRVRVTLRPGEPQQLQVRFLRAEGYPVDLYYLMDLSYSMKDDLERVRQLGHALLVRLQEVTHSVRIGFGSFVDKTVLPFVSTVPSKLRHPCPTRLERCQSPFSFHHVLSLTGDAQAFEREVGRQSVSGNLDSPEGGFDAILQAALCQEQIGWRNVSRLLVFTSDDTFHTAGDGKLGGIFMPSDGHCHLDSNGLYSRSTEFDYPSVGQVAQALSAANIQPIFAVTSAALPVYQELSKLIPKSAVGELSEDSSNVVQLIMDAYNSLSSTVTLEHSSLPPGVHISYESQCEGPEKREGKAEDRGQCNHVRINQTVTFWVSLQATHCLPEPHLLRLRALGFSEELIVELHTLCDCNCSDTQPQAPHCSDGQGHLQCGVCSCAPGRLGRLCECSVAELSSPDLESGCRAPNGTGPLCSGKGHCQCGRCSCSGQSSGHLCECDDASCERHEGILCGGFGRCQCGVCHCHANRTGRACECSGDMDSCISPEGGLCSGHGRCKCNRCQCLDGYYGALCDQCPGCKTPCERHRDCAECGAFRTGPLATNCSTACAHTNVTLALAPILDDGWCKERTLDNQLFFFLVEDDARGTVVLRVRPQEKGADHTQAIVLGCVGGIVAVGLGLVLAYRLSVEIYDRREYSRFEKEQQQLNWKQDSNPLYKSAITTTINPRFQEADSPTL

| SMILES | pIC50 (α4β1 integrin; [1]) | pIC50 (α4β7 integrin; [2]) | pIC50 (α4β1 integrin; [3]) | pIC50 (α4β7 integrin; [4]) |
| --- | --- | --- | --- | --- |
| Cn1c(=O)c(-c2cccc3c(C[C@H](NC(=O)c4c(F)cccc4F)C(=O)O)cccc23)c(C(F)(F)F)c2cc(CO)ccc21 [Compound 1043] | < 6.00 | 7.00 to 8.00 | – | – |
| O=C(O)[C@H](Cc1cccc2c(-c3nccc4c(CN5CCOC(C(F)(F)F)C5)cccc34)cccc12)NC(=O)C1(C(F)(F)F)CCN(CC(F)(F)F)CC1 (stereo partly drawn) [Compound 660] | – | – | < 6.00 | 7.00 to 8.00 |
| CN1CCCC1c1cc(-c2cccc3c(C[C@H](NC(=O)C4(C(F)(F)F)CCN(CC(F)(F)F)CC4)C(=O)O)cccc23)c2cnccc2c1 (stereo partly drawn) [Compound 532] | – | – | < 6.00 | 7.00 to 8.00 |
| COc1ccc(CN(C)CCF)c(OC)c1-c1cccc2c(C[C@H](NC(=O)c3c(C)cccc3F)C(=O)O)cccc12 [Compound 636] | – | – | 6.00 to 7.00 | > 8.00 |
| Cn1c(=O)c(-c2cccc3c(C[C@H](NC(=O)C4(C(F)(F)F)CCN(CCF)CC4)C(=O)O)cccc23)c(C(F)(F)F)c2ccccc21 [Compound 530] | – | – | 6.00 to 7.00 | > 8.00 |
| O=C(O)[C@H](Cc1cccc2c(-c3ncc(CN4CCOC(C(F)(F)F)C4)c4ccccc34)cccc12)NC(=O)C1(C(F)(F)F)CCN(CC(F)(F)F)CC1 (stereo partly drawn) [Compound 856] | < 6.00 | 7.00 to 8.00 | – | – |
| O=C(O)[C@H](Cc1cccc2c(-c3c(C(F)(F)F)ccc4cccnc34)cccc12)NC(=O)C1(C(F)(F)F)CCN(CC(F)(F)F)CC1 [Compound 524] | – | – | < 6.00 | 7.00 to 8.00 |
| CCc1cccc(F)c1C(=O)N[C@@H](Cc1cccc2c(-c3c(CN4CCCCC4)cccc3OC)cccc12)C(=O)O [Compound 546] | – | – | 6.00 to 7.00 | > 8.00 |
| COc1ccc(CN2CC3CCC(C2)O3)c(OC)c1-c1cccc2c(C[C@H](NC(=O)C3(C(F)(F)F)CCN(CC(F)(F)F)CC3)C(=O)O)cccc12 [Compound 845] | < 6.00 | 7.00 to 8.00 | – | – |
| COc1c(-c2cccc3c(C[C@H](NC(=O)C4(C(F)(F)F)CCN(CC(F)F)CC4)C(=O)O)cccc23)cc(CN2CCCCC2)cc1C(F)(F)F [Compound 764] | < 6.00 | 7.00 to 8.00 | – | – |
| CCOCc1cc(CN2CCCCC2)c(-c2cccc3c(C[C@H](NC(=O)c4c(C)cccc4F)C(=O)O)cccc23)c(OC)c1 [Compound 1000] | 6.00 to 7.00 | > 8.00 | – | – |
| CCCS(=O)(=O)Nc1ccc(F)c(C(=O)N[C@@H](Cc2cccc3c(-c4c(C(F)(F)F)c5ccccc5n(C)c4=O)cccc23)C(=O)O)c1F [Compound 496] | – | – | < 6.00 | 7.00 to 8.00 |
| COc1cccc(CN2CC3CCC(C2)O3)c1-c1cccc2c(C[C@H](NC(=O)c3c(C)cccc3F)C(=O)O)cccc12 [Compound 1028] | < 6.00 | 7.00 to 8.00 | – | – |
| COc1cccc(CCCN(C)C)c1-c1cccc2c(C[C@H](NC(=O)C3(C(F)(F)F)CCN(CC(F)(F)F)CC3)C(=O)O)cccc12 [Compound 567] | – | – | 6.00 to 7.00 | > 8.00 |
| COc1ccc(CN2CCC(F)CC2)c(OC)c1-c1cccc2c(C[C@H](NC(=O)c3c(C)cccc3F)C(=O)O)cccc12 [Compound 624] | – | – | 6.00 to 7.00 | > 8.00 |
| CC1(C)CCN(Cc2cnc(-c3cccc4c(C[C@H](NC(=O)C5(C(F)(F)F)CCN(CC(F)(F)F)CC5)C(=O)O)cccc34)c3ccccc23)CC1 [Compound 854] | 6.00 to 7.00 | > 8.00 | – | – |
| COc1cc2c(cc1-c1cccc3c(C[C@H](NC(=O)c4c(C)cccc4F)C(=O)O)cccc13)CN(CC(F)F)CC2 [Compound 1006] | 6.00 to 7.00 | 7.00 to 8.00 | – | – |
| Cn1c(=O)c(-c2cccc3c(C[C@H](NC(=O)C4(C(F)(F)F)CCN(CC5(F)CCC5)CC4)C(=O)O)cccc23)c(C(F)(F)F)c2ccccc21 [Compound 533] | – | – | < 6.00 | 7.00 to 8.00 |
| COc1c(CN2CCCCC2)ccc(OC(F)(F)F)c1-c1cccc2c(C[C@H](NC(=O)c3c(C)cccc3F)C(=O)O)cccc12 [Compound 704] | < 6.00 | 7.00 to 8.00 | – | – |
| CN1CCc2cc(-c3cccc4c(C[C@H](NC(=O)C5(C(F)(F)F)CCN(CC(F)(F)F)CC5)C(=O)O)cccc34)ncc2C1 [Compound 754] | < 6.00 | 7.00 to 8.00 | – | – |

| SMILES | pIC50 (α4β1 integrin; [1]) | pIC50 (α4β7 integrin; [2]) | pIC50 (α4β1 integrin; [3]) | pIC50 (α4β7 integrin; [4]) |
| --- | --- | --- | --- | --- |
| CN(C)CCc1cccc2c(-c3cccc4c(C[C@H](NC(=O)C5(C(F)(F)F)CCN(CC(F)(F)F)CC5)C(=O)O)cccc34)nccc12 [Compound 1042] | 6.00 to 7.00 | > 8.00 | – | – |
| CN1CCC(c2cnc(-c3cccc4c(C[C@H](NC(=O)C5(C(F)(F)F)CCN(CC(F)(F)F)CC5)C(=O)O)cccc34)c(C(F)(F)F)c2)CC1 [Compound 757] | 6.00 to 7.00 | > 8.00 | – | – |
| COc1ccc(CCN2CCC(C)(C)CC2)c(OC)c1-c1cccc2c(C[C@H](NC(=O)C3(C(F)(F)F)CCN(CC(F)(F)F)CC3)C(=O)O)cccc12 [Compound 967] | 6.00 to 7.00 | > 8.00 | – | – |
| COc1ccc(CN2CCC(c3ccncc3)CC2)c(OC)c1-c1cccc2c(C[C@H](NC(=O)C3(C(F)(F)F)CCN(CC(F)(F)F)CC3)C(=O)O)cccc12 [Compound 808] | 6.00 to 7.00 | > 8.00 | – | – |
| O=C(N[C@@H](Cc1cccc2c(-c3cccc4cccnc34)cccc12)C(=O)O)c1c(F)cccc1F [Compound 500] | – | – | < 6.00 | < 6.00 |
| COc1cc2c(c(OC)c1-c1cccc3c(C[C@H](NC(=O)C4(C(F)(F)F)CCN(CC(F)(F)F)CC4)C(=O)O)cccc13)CN(C)CC2 [Compound 474] | – | – | 6.00 to 7.00 | > 8.00 |
| O=C(O)[C@H](Cc1cccc2c(-c3ncc(CN4CCN(C5CC5)CC4)cc3C3CC3)cccc12)NC(=O)C1(C(F)(F)F)CCN(CC(F)F)CC1 [Compound 952] | 6.00 to 7.00 | > 8.00 | – | – |
| COc1ccc(CN2CCC(C)(C)CC2)c(OC)c1-c1cccc2c(C[C@H](NC(=O)C3(C(F)(F)F)CCN(CC(F)(F)F)CC3)C(=O)O)cccc12 [Compound 789] | 6.00 to 7.00 | > 8.00 | – | – |
| COc1ccc(CN(C)C)c(Cl)c1-c1cccc2c(C[C@H](NC(=O)c3c(C)cccc3F)C(=O)O)cccc12 [Compound 1038] | 6.00 to 7.00 | > 8.00 | – | – |
| O=C(O)[C@H](Cc1cccc2c(-c3ncc(CN4CCN(C5CC5)CC4)c4ccccc34)cccc12)NC(=O)C1(C(F)(F)F)CCN(CC(F)F)CC1 [Compound 901] | 6.00 to 7.00 | > 8.00 | – | – |
| COc1cc2c(c(C(F)(F)F)c1-c1cccc3c(C[C@H](NC(=O)C4(C(F)(F)F)CCN(CC(F)(F)F)CC4)C(=O)O)cccc13)CCN(CC(F)(F)F)C2 [Compound 673] | – | – | < 6.00 | 7.00 to 8.00 |
| COc1ccc2c(c1-c1cccc3c(C[C@H](NC(=O)c4c(C)cccc4F)C(=O)O)cccc13)CCN(C)C2 [Compound 998] | 6.00 to 7.00 | > 8.00 | – | – |
| COc1ccc(CN2CCC[C@@H](F)C2)c(OC)c1-c1cccc2c(C[C@H](NC(=O)C3(C(F)(F)F)CCN(CC(F)(F)F)CC3)C(=O)O)cccc12 [Compound 841] | < 6.00 | > 8.00 | – | – |
| COc1cc(CN2CCC(F)(F)CC2)cc(OC)c1-c1cccc2c(C[C@H](NC(=O)C3(C(F)(F)F)CCN(CC(F)(F)F)CC3)C(=O)O)cccc12 [Compound 795] | 6.00 to 7.00 | > 8.00 | – | – |
| COc1cc(CCN2CCCCC2)cnc1-c1cccc2c(C[C@H](NC(=O)C3(C(F)(F)F)CCN(CC(F)(F)F)CC3)C(=O)O)cccc12 [Compound 983] | < 6.00 | > 8.00 | – | – |
| O=C(O)[C@H](Cc1cccc2c(-c3cc(CN4CCCCC4)cc4cccnc34)cccc12)NC(=O)C1(C(F)(F)F)CCN(CC(F)(F)F)CC1 [Compound 732] | < 6.00 | 7.00 to 8.00 | – | – |
| COc1cccc(CCCN2CCC(F)(F)CC2)c1-c1cccc2c(C[C@H](NC(=O)C3(C(F)(F)F)CCN(CC(F)(F)F)CC3)C(=O)O)cccc12 [Compound 742] | < 6.00 | 7.00 to 8.00 | – | – |
| COc1cc(CN2CCCCC2)cc(OC)c1-c1cccc2c(C[C@H](NC(=O)C3(C(F)(F)F)CCN(CC(F)(F)F)CC3)C(=O)O)cccc12 [Compound 794] | 6.00 to 7.00 | > 8.00 | – | – |
| COc1cccc(OCCN2CCCCC2)c1-c1cccc2c(C[C@H](NC(=O)C3(C(F)(F)F)CCN(CC(F)(F)F)CC3)C(=O)O)cccc12 [Compound 729] | 6.00 to 7.00 | > 8.00 | – | – |
